Where no end group is shown, it is not given here.
Tests used:
[1] = test system: CRF(1–16)/R1ΔN chimera of CRF1R (HEK 293 cells, transient expression); conditions: ref Nielsen et al. 2000; cited from earlier work
RAW 264.7 cells = assay: Proliferation assay; type: cell-based; conditions: 1 μM, third day of culture (72 h), MTT; n = 3 experiments
3T3L1 mature adipocytes = assay: CXCL1 release from differentiated 3T3L1 white adipocytes; type: cell-based, mouse; conditions: 10 nM CRF alone, 24 h, differentiated white 3T3L1 adipocytes, ELISA

| Molecule | block of the constitutive activity (activation) of the CRF(1–16)/R1ΔN chimera [1] | proliferation rate of RAW 264.7 cells compared to vehicle-treated cells (RAW 264.7 cells) | production of CXCL1 compared to untreated (control) cells (3T3L1 mature adipocytes) |
| --- | --- | --- | --- |
| CCCCN(CC)c1nc(C)nc2c1c(C)c(C)n2-c1c(C)cc(C)cc1C [antalarmin] | blocked | – | – |
| astressin | not blocked | levels similar to those achieved with astressin | – |
| corticotropin-releasing factor (SEEPPISLDLTFHLLREVLEMARAEQLAQQAHSNRKLMEII; ends and bridges not checked; UniProt P06850 154-194, looked up) [CRF] | – | – | significantly reduced |
